Test results: patent EP0595183B1, “Hydantoin derivatives, salts thereof and maillard reaction inhibitors comprising the same” (SANWA KAGAKU KENKYUSHO CO., LTD., priority 1992, dated 1994)

How the values were obtained:
[1] = test system: bovine serum albumin (BSA); assay: Inhibition of fluorescence development (Maillard reaction products) in BSA/fructose incubation; format: biochemical; conditions: compound 5mM, BSA 10mg/ml, fructose 400mM, pH 7.4, 20% DMSO, 37°C for 24 hours; fluorescence ex 350nm / em 428nm
Method: A testing or control compound (5mM), bovine serum albumin (BSA, 10mg/ml) and fructose (400mM) were dissolved in […] Na-phosphate buffer (pH 7.4) containing 20% DMSO. The mixture was incubated at 37°C for 24 hours.
The incubated mixture was diluted to 10 folds in volume with distilled water and measured fluorescense intensity at excitation wavelength of 350nm and emission wavelength of 428nm with a HITACHI F-4010 spectrofluorometer. The inhibition ratio of fluorescense development was estimated with the following equation. Inhibition (%) = {[F1-F3-F4)- (F2-F3-F4)]/(F1-F3-F4)} x 100 [formula] wherein, Inhibition : Inhibition ratio, F1 : Fluorescense intensity of the solution containing no compound, F2 : Fluorescense intensity of the solution containing the compound, F3 : Fluorescense intensity of the solution containing only BSA, and F4 : Fluorescense intensity of the solution containing only fructose.

rats = assay: 4 week subacute toxicity by oral administration; format: in vivo; conditions: rat (male)
Text: (§1) Acute and 4 week subacute toxicities of exemplar compounds according to the invention were checked by oral administration thereof and using rats.

[2] = Acute toxicity by oral administration; conditions: in vivo
Text: as §1

BSA = assay: Inhibition of cross-linking of proteins (SDS-PAGE), BSA with fructose; format: biochemical; conditions: Protein BSA 10mg/ml, compound 5mM, fructose 400mM, pH 7.4, 37°C for 7 days
Method: (§2) A testing or control compound (5mM), fructose (400mM) and a protein of either BSA (10mg/ml) or lysozyme (10mg/ml) were dissolved in 0.5M Na-phosphate buffer (pH 7.4). The mixture was incubated at 37°C for 7 days At the end of the reaction period, sodium dodecyl sulfonate-polyacrylamide gel electrophoresis (SDS-PAGE) was carried out with using aliquots of the reaction mixture. Protein band was stained with Coomassie brilliant blue and protein content of each band was determined with a SHIMAZU UV-265 scanmeter.
(§3) The inhibition ratio of cross-linking of proteins was estimated with the following equation. Inhibition ratio (%) = [(A - B)/A] x 100 [formula] wherein, A : degree of cross-link formation (containing no compound), and B : degree of cross-link formation (containing the compound).

lysozyme = assay: Inhibition of cross-linking of proteins (SDS-PAGE), lysozyme with fructose; format: biochemical; conditions: Protein Lysozyme 10mg/ml, compound 5mM, fructose 400mM, pH 7.4, 37°C for 7 days
Method: as §2, §3

| Structure (SMILES) | Inhibition ratio (%) [1] | Non-toxic dose (rats) | LD50 ([2]; rat (female)) | LD50 ([2]; rat (male)) | Inhibition ratio (%) (BSA) | Inhibition ratio (%) (lysozyme) |
| --- | --- | --- | --- | --- | --- | --- |
| N=C(N)NN [Aminoguanidine, reference compound] | 86.9% | 30 mg/kg | 1300 mg/kg | 1900 mg/kg | 70.7% | 59.3% |
| NNC(=O)[C@H]1C[C@@]2(NC(=O)NC2=O)c2cc(F)ccc2O1 [Example 1, (2R,4R)-6-Fluoro-2',5'-dioxospiro[chroman-4,4'-imidazolidine]-2-carbohydrazide] | 87.3% |  | > 4000 mg/kg | > 4000 mg/kg |  |  |
| NNC(=O)[C@H]1C[C@]2(NC(=O)NC2=O)c2cc(F)ccc2O1 [Example 2, (2R,4S)-6-Fluoro-2',5'-dioxospiro[chroman-4,4'-imidazolidine]-2-carbohydrazide] | 88.6% |  |  |  |  |  |
| NNC(=O)[C@@H]1C[C@@]2(NC(=O)NC2=O)c2cc(F)ccc2O1 [Example 3, (2S,4R)-6-Fluoro-2',5'-dioxospiro[chroman-4,4'-imidazolidine]-2-carbohydrazide] | 88.1% |  |  |  |  |  |
| O=C1NC(=O)[C@@]2(C[C@@H](C(=O)NNC(=O)C(F)(F)F)Oc3ccc(F)cc32)N1 [Example 7, (2S, 4S)-6-Fluoro-2',5'-dioxo-N'-trifluoroacetylspiro[chroman-4,4'-imidazolidine]-2-carbohydrazide] | 21.3% |  |  |  |  |  |
| NNC(=O)[C@@H]1C[C@]2(NC(=O)N(N)C2=O)c2cc(F)ccc2O1 [Example 9, (2S,4S)-1'-Amino-6-fluoro-2',5'-dioxospiro[chroman-4,4'-imidazolidine]-2-carbohydrazide] | 86.6% |  |  |  |  |  |
| NC(=O)[C@@H]1C[C@]2(NC(=O)N(N)C2=O)c2cc(F)ccc2O1 [Example 10, (2S,4S)-1'-Ainino-6-fluoro-2',5'-dioxospiro[chroman-4,4'-imidazolidine]-2-carboxamide] | 19.7% |  |  |  |  |  |
| NNC(=O)[C@@H]1C[C@]2(NC(=O)NC2=O)c2cc(F)ccc2O1 [Reference Example 2, (2S,4S)-6 -Fluoro-2',5'-dioxospiro[chroman-4,4'-imidazolidine]-2-carbohydrazide] | 88.7% | > 2000 mg/kg | > 4000 mg/kg | > 4000 mg/kg | 88.7% | 67.4% |
| CNNC(=O)[C@@H]1C[C@]2(NC(=O)NC2=O)c2cc(F)ccc2O1 [Reference Example 3, (2S,4S)-6-Fluoro-N'-methyl-2',5'-dioxospiro[chroman-4,4'-imidazolidine]-2-carbohydrazide] | 41.6% |  |  |  |  |  |
| O=C1NC(=O)[C@@]2(C[C@@H](C(=O)NNc3ccccc3)Oc3ccc(F)cc32)N1 [Reference Example 4, (2S,4S)-6-Fluoro-2',5'-dioxo-N'-phenylspiro[chroman-4,4'-imidazolidine]-2-carbohydrazide] | 17.8% |  |  |  |  |  |
